Assay results reported in ChEMBL document CHEMBL4610043, “Design, synthesis and identification of novel, orally bioavailable non-covalent Nrf2 activators” (Bioorg Med Chem Lett, 2020).
Converted amounts (≈) assume the structure as drawn.

Columns and labels:
[1] = fCmax In C57BL/6 mouse at 10 mg/kg, po; assay type: ADME, organism-based; details: in vivo
[2] = Oral bioavailability in rat at 5 mg/kg; assay type: ADME, organism-based; details: in vivo
[3] = Clearance in rat at 1 mg/kg, iv; assay type: ADME, organism-based; details: in vivo
[4] = Cmax in C57BL/6 mouse at 10 mg/kg, po; assay type: ADME, organism-based; set-up: dose 10 mg/kg, route oral; details: in vivo
[5] = AUC in rat at 1 mg/kg, iv; assay type: ADME, organism-based; details: in vivo
[6] = Distribution coefficient, log D of compound at pH 7.4 by shake flask method; assay type: physicochemical; details: octanol/water
[7] = Unbound brain to plasma concentration ratio in mouse; assay type: ADME; details: brain and plasma, read-out: K(p,uu,brain)
[8] = Protein binding in mouse plasma assessed as unbound fraction at 2 uM by rapid equilibrium dialysis method; assay type: ADME, cell-free
[9] = Volume of distribution at steady state in rat at 1 mg/kg, iv; assay type: ADME, organism-based; details: in vivo, read-out: Vdss
[10] = Half life in rat at 1 mg/kg, iv; assay type: ADME, organism-based; details: in vivo
[11] = Aqueous solubility of compound at pH 6.8 by shake flask method; assay type: physicochemical; details: buffer
[12] = Cmax in rat at 5 mg/kg, po; assay type: ADME, organism-based; set-up: dose 5 mg/kg, route oral; details: in vivo
[13] = Protein binding in human plasma assessed as unbound fraction at 2 uM by rapid equilibrium dialysis method; assay type: ADME, cell-free
[14] = Protein binding in mouse brain assessed as unbound fraction; assay type: ADME, tissue-based
[15] = Tmax in rat at 5 mg/kg, po; assay type: ADME, organism-based; details: in vivo
[16] = AUC in rat at 5 mg/kg, po; assay type: ADME, organism-based; details: in vivo
[17] = Protein binding in rat plasma assessed as unbound fraction at 2 uM by rapid equilibrium dialysis method; assay type: ADME, cell-free
[18] = Efflux ratio of apparent permeability in MDCK-MDR1 cells; assay type: ADME, cell-based, Canis lupus familiaris; details: dog

fCmax [1] [nM]	bioavailability [2] [%]	clearance [3] [mL/min/kg]	Cmax [4] [µM]	AUC [5] [ng·h/mL]	logD [6]	Kp uu [7]	fraction unbound at 2 µM [8]	Vd [9] [L/kg]	half-life [10] [h]	solubility thermodynamic [11] [µg/mL]	Cmax [12] [ng/mL]	fraction unbound at 2 µM [13]	fraction unbound [14]	Tmax [15] [h]	AUC [16] [ng·h/mL]	fraction unbound at 2 µM [17]	efflux ratio [18]	Compound
33	20	6.16	6.7	2510	1.39	0.04	0.00505	0.707	3.77	29.5 (≈ 56.2 µM)	958	0.00708	0.0211	0.92	2720	0.00568		CCn1nnc2c(C)c([C@@H](CC(=O)O)c3ccc4c(c3)CN(C(=O)c3c(C)c(C)cc(C)c3C)CC4)ccc21
																	104	CCn1nnc2c(C)c([C@H](c3ccc4c(c3)CN(C(=O)c3c(C)c(C)cc(C)c3C)CC4)C(C)(C)C(=O)O)ccc21
